# In patent publication US20110105457A1, “HETEROCYCLIC COMPOUND HAVING INHIBITORY ACTIVITY ON PI3K” (SHIONOGI & CO., LTD., priority 2008, published 2011):
# Biological target: PI-3 kinase γ (Homo sapiens, UniProt P48736)
# Assay: PI3Kγ inhibitory activity, PI3-kinase HTRF assay (Millipore)
# Assay type: biochemical
# Conditions: 0.5 h; compound 50 μM; read-out: Inhibition ratio % (50 μM)
# Protocol: (Method) The PI3Kγ inhibitory activity of a compound was evaluated using PI3-kinase HTRF™ assay (Millipore) according to the following procedure.
# To each well of a testing plate was added 5 μL of a compound solution comprising 10% DMSO (200 μM as the concentration of the compound), 5 μL of 40 μM phosphatidylinositol (4,5)-bisphosphate/20 mM MgCl2/10 mM DTT, and 5 μL of 80 μg/mL PI-3 kinase γ/10 mM MgCl2/5 mM DTT, and then stood for 10 minutes.
# Then, 5 μL of 40 μM ATP/10 mM MgCl2/5 mM DTT was added thereto. After reacting for 30 minutes at room temperature, 5 μL of a solution comprising EDTA and biotinylated phosphatidylinositol (3,4,5)-triphosphate was added to quench the reaction.
# 5 μL of a detection reagent comprising a europium-labeled anti-GST antibody, the GST-tagged PH domain, and allophycocyanin-labeled streptavidin was added thereto. After 18 hours, HTRF (excitation wavelength: 330 nm, measuring wavelengths: 620 nm and 665 nm) was measured.
# A value of dividing an amount of fluorescence obtained at the measuring wavelength 665 nm by an amount of fluorescence obtained at 620 nm was defined as an HTRF ratio. The HTRF ratio in the absence of a compound was defined as 100% activity, and the HTRF ratio in the absence of PI-3 kinase γ was defined as 0% activity to calculate an inhibition ratio.
# PI-3 kinase γ, sequence (P48736 whole entry): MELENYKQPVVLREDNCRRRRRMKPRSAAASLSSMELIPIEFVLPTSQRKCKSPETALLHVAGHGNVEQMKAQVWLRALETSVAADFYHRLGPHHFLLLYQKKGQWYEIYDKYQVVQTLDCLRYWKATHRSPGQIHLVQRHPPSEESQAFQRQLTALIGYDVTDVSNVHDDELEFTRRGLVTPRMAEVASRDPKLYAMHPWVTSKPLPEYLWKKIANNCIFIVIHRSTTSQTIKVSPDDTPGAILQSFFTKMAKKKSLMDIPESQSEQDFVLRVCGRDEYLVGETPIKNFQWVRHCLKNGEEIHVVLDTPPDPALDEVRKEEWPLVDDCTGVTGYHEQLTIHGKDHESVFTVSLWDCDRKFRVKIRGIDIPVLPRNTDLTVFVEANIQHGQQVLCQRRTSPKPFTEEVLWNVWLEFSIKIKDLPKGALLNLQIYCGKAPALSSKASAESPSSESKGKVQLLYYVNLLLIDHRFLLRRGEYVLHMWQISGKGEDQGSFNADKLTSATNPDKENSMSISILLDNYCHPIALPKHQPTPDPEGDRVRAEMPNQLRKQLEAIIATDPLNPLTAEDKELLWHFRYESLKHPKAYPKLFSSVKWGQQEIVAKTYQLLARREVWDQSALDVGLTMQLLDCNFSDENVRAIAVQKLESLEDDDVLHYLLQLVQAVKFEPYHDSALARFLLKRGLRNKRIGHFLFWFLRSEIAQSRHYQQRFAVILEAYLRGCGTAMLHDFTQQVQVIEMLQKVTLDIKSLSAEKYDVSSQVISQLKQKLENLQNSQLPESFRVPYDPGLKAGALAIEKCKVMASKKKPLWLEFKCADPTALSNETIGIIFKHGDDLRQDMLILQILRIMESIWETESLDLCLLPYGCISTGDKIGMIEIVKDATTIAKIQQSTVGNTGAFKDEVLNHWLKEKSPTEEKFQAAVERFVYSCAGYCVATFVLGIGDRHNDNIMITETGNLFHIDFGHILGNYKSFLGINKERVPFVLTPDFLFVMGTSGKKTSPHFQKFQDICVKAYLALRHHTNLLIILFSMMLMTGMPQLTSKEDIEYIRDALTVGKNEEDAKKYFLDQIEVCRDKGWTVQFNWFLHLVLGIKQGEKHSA
row,inhibition at 50 µM,SMILES
1,53%,CNC(=O)Nc1cn2nc(/C=C/c3ccc(OC)cc3)ccc2n1 [Compound I-149]
2,76%,CNC(=O)Nc1cn2nc(C(=O)Nc3ccc(Cl)cc3)ccc2n1 [Compound I-46]
3,74%,COc1cccc(-c2ccc3nc(NC(=O)NCCc4ccccc4)cn3n2)c1 [Compound I-107]
4,70%,CNC(=O)Nc1cn2nc(-c3cc4ccccc4s3)ccc2n1 [Compound I-58]
5,85%,CCCCNC(=O)Nc1cn2nc(-c3cccc(OC)c3)ccc2n1 [Compound I-117]
6,89%,CNC(=O)Nc1cn2nc(C(=O)NC3CCCC3)ccc2n1 [Compound I-50]
7,87%,CNC(=O)Nc1cn2nc(-c3cn[nH]c3)ccc2n1 [Compound I-141]
8,127%,COc1cccc(-c2ccc3nc(Nc4ccc(CO)cn4)cn3n2)c1 [Compound I-289]
9,72%,CNC(=O)Nc1cn2nc(-c3ccc(Cl)c(Cl)c3)ccc2n1 [Compound I-67]
10,57%,CNC(=O)Nc1cn2nc(-c3ccc(NC(=O)OC)cc3)ccc2n1 [Compound I-80]
11,80%,CNC(=O)Nc1cn2nc(-c3cccc(O)c3)ccc2n1 [Compound I-152]
12,64%,CNC(=O)Nc1cn2nc(-c3ccc(C(N)=O)cc3)ccc2n1 [Compound I-77]
13,96%,COC(=O)c1cccc(Nc2cn3nc(-c4cccc(OC)c4)ccc3n2)c1 [Compound I-285]
14,61%,COc1cccc(-c2ccc3nc(NC(=O)NCCC(=O)NC(C)(C)C)cn3n2)c1 [Compound I-272]
15,86%,CNC(=O)Nc1cn2nc(NC(=O)Nc3cccc(C(=O)O)c3)ccc2n1 [Compound I-159]
16,79%,CNC(=O)Nc1cn2nc(-c3cccc(C(=O)N(C)C)c3)ccc2n1 [Compound I-82]
17,72%,CNC(=O)Nc1cn2nc(C(=O)Nc3ccccc3OCCN)ccc2n1 [Compound I-98]
18,70%,CNC(=O)Nc1cn2nc(C(=O)N3CCC(C(=O)O)CC3)ccc2n1 [Compound I-32]
19,79%,CNC(=O)Nc1cn2nc(-c3cccc(C)c3)ccc2n1 [Compound I-65]
20,52%,COC(=O)c1cccc(C(=O)Nc2cn3nc(-c4cccc(OC)c4)ccc3n2)c1 [Compound I-192]
21,67%,CNC(=O)Nc1cn2nc(N3CCCC3=O)ccc2n1 [Compound I-6]
22,82%,CNC(=O)Nc1cn2nc(-c3ccccc3)ccc2n1 [Compound I-9]
23,79%,CNC(=O)Nc1cn2nc(-c3cccc(C(=O)NC(C)C)c3)ccc2n1 [Compound I-139]
24,83%,COc1cccc(-c2ccc3nc(NC(=O)c4cccc(N5CCOCC5)c4)cn3n2)c1 [Compound I-202]
25,78%,COc1cccc(-c2ccc3nc(NC(=O)NC4CCCC4)cn3n2)c1 [Compound I-115]
26,76%,CNC(=O)Nc1cn2nc(C(=O)c3cccc(OC)c3)ccc2n1 [Compound I-17]

row,inhibition at 50 µM,SMILES
1,78%,CNC(=O)Nc1cn2nc(/C=C/c3ccccc3)ccc2n1 [Compound I-70]
2,96%,COc1cccc(-c2ccc3nc(NC(=O)c4ccc[nH]4)cn3n2)c1 [Compound I-180]
3,105%,CNC(=O)Nc1cn2nc(-c3cccc(NC(C)=O)c3)ccc2n1 [Compound I-124]
4,75%,COc1cccc(-c2ccc3nc(NC(=O)NCc4nccs4)cn3n2)c1 [Compound I-255]
5,89%,CNC(=O)Nc1cn2nc(Nc3cccc(C(=O)O)c3)ccc2n1 [Compound I-162]
6,87%,CNC(=O)Nc1cn2nc(Nc3cccc(CO)c3)ccc2n1 [Compound I-222]
7,65%,COc1cccc(-c2ccc3nc(NC(=O)CC4CC4)cn3n2)c1 [Compound I-188]
8,81%,CNC(=O)Nc1cn2nc(Sc3ccccc3)ccc2n1 [Compound I-18]
9,63%,CNC(=O)Nc1cn2nc(-c3cccc(OC)n3)ccc2n1 [Compound I-151]
10,74%,CNC(=O)Nc1cn2nc(C(=O)NCc3ccccc3)ccc2n1 [Compound I-15]
11,76%,COCCNC(=O)Nc1cn2nc(-c3cccc(OC)c3)ccc2n1 [Compound I-245]
12,83%,COc1cccc(-c2ccc3nc(NC(=O)NCCC(N)=O)cn3n2)c1 [Compound I-279]
13,67%,COc1cccc(-c2ccc3nc(NC(=O)NCCN)cn3n2)c1 [Compound I-264]
14,56%,CNC(=O)Nc1cn2nc(COc3cccc(OC)c3)ccc2n1 [Compound I-22]
15,84%,CCOC(=O)CNC(=O)Nc1cn2nc(-c3cccc(OC)c3)ccc2n1 [Compound I-112]
16,67%,COc1cccc(-c2ccc3nc(NC(=O)NCc4ccccn4)cn3n2)c1 [Compound I-236]
17,90%,CNC(=O)Nc1cn2nc(-c3ccc(-c4ccccc4)cc3)ccc2n1 [Compound I-68]
18,87%,CCOC(=O)c1ccc2nc(NC(=O)NC)cn2n1 [Compound I-13]
19,77%,CNC(=O)Nc1cn2nc(NC(=O)c3ccc(C(=O)O)cc3)ccc2n1 [Compound I-160]
20,77%,CNC(=O)Nc1cn2nc(-c3cccc(C(=O)OC)c3)ccc2n1 [Compound I-35]
21,66%,CNC(=O)Nc1cn2nc(-c3ccc(S(C)(=O)=O)cc3)ccc2n1 [Compound I-72]
22,54%,CNC(=O)Nc1cn2nc(-c3cccc(C(F)(F)F)c3)ccc2n1 [Compound I-154]
23,57%,CNC(=O)Nc1cn2nc(NC(=O)C3CCCC3)ccc2n1 [Compound I-4]
24,62%,CNC(=O)Nc1cn2nc(Cc3ccccc3)ccc2n1 [Compound I-20]
25,91%,CNC(=O)Nc1cn2nc(-c3ccc(OC)cc3)ccc2n1 [Compound I-63]
26,64%,CNC(=O)Nc1cn2nc(-c3cccc(OC(C)=O)c3)ccc2n1 [Compound I-146]

row,inhibition at 50 µM,SMILES
1,86%,CCOC(=O)CNC(=O)Nc1cn2nc(-c3cncc(OC)c3)ccc2n1 [Compound I-223]
2,83%,CCCNC(=O)c1ccc2nc(NC(=O)NC)cn2n1 [Compound I-48]
3,55%,CNC(=O)Nc1cn2nc(NC(=O)c3ccccc3)ccc2n1 [Compound I-104]
4,82%,COC(=O)[C@H]1CC[C@@H](C(=O)Nc2cn3nc(-c4cccc(OC)c4)ccc3n2)C1 [Compound I-195]
5,84%,COc1cccc(-c2ccc3nc(NC(=O)C4CCOCC4)cn3n2)c1 [Compound I-194]
6,86%,COc1cccc(-c2ccc3nc(Nc4cccc(C(C)=O)c4)cn3n2)c1 [Compound I-283]
7,53%,COc1cccc(-c2ccc3nc(NC(=O)NC4CCN(S(=O)(=O)C(C)C)CC4)cn3n2)c1 [Compound I-271]
8,85%,COc1cccc(-c2ccc3nc(NC(=O)NCCC(=O)OC(C)(C)C)cn3n2)c1 [Compound I-273]
9,81%,CCCNC(=O)Nc1cn2nc(-c3cccc(OC)c3)ccc2n1 [Compound I-110]
10,86%,COc1cccc(-c2ccc3nc(NC(=O)NC(C)C)cn3n2)c1 [Compound I-113]
11,63%,CNC(=O)Nc1cn2nc(COc3cccnc3)ccc2n1 [Compound I-218]
12,59%,CNC(=O)Nc1cn2nc(-c3cccc(C#N)c3)ccc2n1 [Compound I-134]
13,65%,CNC(=O)Nc1cn2nc(Oc3ccccc3)ccc2n1 [Compound I-19]
14,79%,CNC(=O)Nc1cn2nc(C(=O)Nc3ccccc3)ccc2n1 [Compound I-43]
15,81%,COc1cccc(-c2ccc3nc(NC(=O)CCC(=O)N(C)C)cn3n2)c1 [Compound I-172]
16,85%,CNC(=O)Nc1cn2nc(Nc3ccc(OC)cc3)ccc2n1 [Compound I-54]
17,78%,COc1cccc(-c2ccc3nc(NC(=O)Nc4ccon4)cn3n2)c1 [Compound I-243]
18,89%,CNC(=O)Nc1cn2nc(-c3cccc(CO)c3)ccc2n1 [Compound I-69]
19,50%,CNC(=O)Nc1cn2nc(-c3cccc([N+](=O)[O-])c3)ccc2n1 [Compound I-128]
20,79%,COc1cccc(-c2ccc3nc(NC(=O)NC4CCCCNC4=O)cn3n2)c1 (stereo not drawn) [Compound I-233]
21,60%,CNC(=O)Nc1cn2nc(-c3cccc(C(=O)NCC(C)C)c3)ccc2n1 [Compound I-140]
22,107%,COc1cccc(-c2ccc3nc(Nc4ccc(OCCO)cc4)cn3n2)c1 [Compound I-288]
23,71%,COc1cccc(-c2ccc3nc(NC(=O)NCCNC(=O)OC(C)(C)C)cn3n2)c1 [Compound I-263]
24,71%,COC(=O)C[C@H](C)CC(=O)Nc1cn2nc(-c3cccc(OC)c3)ccc2n1 [Compound I-171]
25,81%,CNC(=O)Nc1cn2nc(C3=CCCC3)ccc2n1 [Compound I-79]
26,84%,COc1cccc(-c2ccc3nc(NC(=O)c4cccc(-n5cncn5)c4)cn3n2)c1 [Compound I-204]
